14 molecules from US12065442B2, “Tropomyosin receptor kinase (TRK) degradation compounds and methods of use” (Cullgen (Shanghai), Inc., priority 2018, dated 2024) can be followed below.

pIC50: −log10 of the molar value.

Usually pIC50 stands for −log10 of the IC50, conventionally taken in molar units.

The first experiment relates to KM12 cells. Nature of the experiment: Cell viability assay (CellTiter-Glo) in KM12 cells. The class given is cell-based. The following applies: Homo sapiens, 72 h; Table 2; KM12 cell viability, CellTiter-Glo, 3 days; read-out: IC50.
As to `Cc1ncsc1-c1ccc(CNC(=O)[C@@H]2C[C@@H](O)CN2C(=O)[C@@H](NC(=O)CCCCCCCCCC(=O)N2CCN(c3ccc(C(=O)Nc4n[nH]c5ccc(Cc6cc(F)cc(F)c6)cc45)c(NC4CCOCC4)c3)CC2)C(C)(C)C)cc1` [CPD-035, (2S,4R)-1-((S)-2-(11-(4-(4-((5-(3,5-Difluorobenzyl)-1H-indazol-3-yl)carbamoyl)-3-((tetrahydro-2H-pyran-4-yl)amino)phenyl)piperazin-1-yl)-11-oxoundecanamido)-3,3-dimethylbutanoyl)-4-hydroxy-N-(4-(4-methylthiazol-5-yl)benzyl)pyrrolidine-2-carboxamide], the pIC50 was 6.52. The same measure, in the same setting: under `Cc1ncsc1-c1ccc(CNC(=O)[C@@H]2C[C@@H](O)CN2C(=O)[C@@H](NC(=O)CCOCCOCCC(=O)N2CCN(c3ccc(C(=O)Nc4n[nH]c5ccc(Cc6cc(F)cc(F)c6)cc45)c(NC4CCOCC4)c3)CC2)C(C)(C)C)cc1` [CPD-038, (2S,4R)-1-((S)-2-(3-(2-(3-(4-(4-((5-(3,5-Difluorobenzyl)-1H-indazol-3-yl)carbamoyl)-3-((tetrahydro-2H-pyran-4-yl)amino)phenyl)piperazin-1-yl)-3-oxopropoxy)ethoxy)propanamido)-3,3-dimethylbutanoyl)-4-hydroxy-N-(4-(4-methylthiazol-5-yl)benzyl)pyrrolidine-2-carboxamide] stands 6.44; under `Cc1ncsc1-c1ccc(CNC(=O)[C@@H]2C[C@@H](O)CN2C(=O)[C@@H](NC(=O)CCCCCCCCCC(=O)N2CCN(c3cccc(-c4cnc5ccc(N6CCC[C@@H]6c6cccc(F)c6)nn45)n3)CC2)C(C)(C)C)cc1` [CPD-022, (2S,4R)-1-((S)-2-(11-(4-(6-(6-((R)-2-(3-Fluorophenyl)pyrrolidin-1-yl)imidazo[1,2-b]pyridazin-3-yl)pyridin-2-yl)piperazin-1-yl)-11-oxoundecanamido)-3,3-dimethylbutanoyl)-4-hydroxy-N-(4-(4-methylthiazol-5-yl)benzyl)pyrrolidine-2-carboxamide], 7.00.

The same experiment, now with this note: Homo sapiens, 72 h; Table 3; KM12 cell viability, CellTiter-Glo, 3 days; read-out: IC50.
With `O=C(CN1CCN(c2cccc(-c3cnc4ccc(N5CCC[C@@H]5c5cccc(F)c5)nn34)n2)CC1)NCCCNc1ccc2c(c1)C(=O)N(C1CCC(=O)NC1=O)C2=O` (stereo partly drawn) [TR-127, N-(3-((2-(2,6-dioxopiperidin-3-yl)-1,3-dioxoisoindolin-5-yl)amino)propyl)-2-(4-(6-(6-((R)-2-(3-fluorophenyl)pyrrolidin-1-yl)imidazo[1,2-b]pyridazin-3-yl)pyridin-2-yl)piperazin-1-yl)acetamide], the negative-log IC50 (pIC50) was 8.57. Same read-out and setting: for `O=C1CCC(N2C(=O)c3ccc(CCN4CCN(c5cccc(-c6cnc7ccc(N8CCC[C@@H]8c8cccc(F)c8)nn67)n5)CC4)cc3C2=O)C(=O)N1` (stereo partly drawn) [TR-204, 2-(2,6-dioxopiperidin-3-yl)-5-(2-(4-(6-(6-((R)-2-(3-fluorophenyl)pyrrolidin-1-yl)imidazo[1,2-b]pyridazin-3-yl)pyridin-2-yl)piperazin-1-yl)ethyl)isoindoline-1,3-dione] the value was 7.97; for `O=C1CCC(N2C(=O)c3ccc(NC4CCN(c5cccc(-c6cnc7ccc(N8CCC[C@@H]8c8cccc(F)c8)nn67)n5)CC4)cc3C2=O)C(=O)N1` (stereo partly drawn) [TR-174, 2-(2,6-dioxopiperidin-3-yl)-5-((1-(6-(6-((R)-2-(3-fluorophenyl)pyrrolidin-1-yl)imidazo[1,2-b]pyridazin-3-yl)pyridin-2-yl)piperidin-4-yl)amino)isoindoline-1,3-dione], 7.73; for `O=C1CCC(N2Cc3ccc(C#CC(=O)N4CCN(c5cccc(-c6cnc7ccc(N8CCC[C@@H]8c8cccc(F)c8)nn67)n5)CC4)cc3C2=O)C(=O)N1` (stereo partly drawn) [TR-202, 3-(6-(3-(4-(6-(6-((R)-2-(3-fluorophenyl)pyrrolidin-1-yl)imidazo[1,2-b]pyridazin-3-yl)pyridin-2-yl)piperazin-1-yl)-3-oxoprop-1-yn-1-yl)-1-oxoisoindolin-2-yl)piperidine-2,6-dione], 8.37. Same read-out and setting: for `O=C(CN1CCN(c2ccc(C(=O)Nc3n[nH]c4ccc(Cc5cc(F)cc(F)c5)cc34)c(NC3CCOCC3)c2)CC1)NCCOCCOCCOCCOCCNc1cccc2c1C(=O)N(C1CCC(=O)NC1=O)C2=O` (centres unmarked) [TR-150, N-(5-(3,5-Difluorobenzyl)-1H-indazol-3-yl)-4-(4-(17-((2-(2,6-dioxopiperidin-3-yl)-1,3-dioxoisoindolin-4-yl)amino)-2-oxo-6,9,12,15-tetraoxa-3-azaheptadecyl)piperazin-1-yl)-2-((tetrahydro-2H-pyran-4-yl)amino)benzamide] the value was 7.78. Regarding `O=C(CN1CCN(c2ccc(C(=O)Nc3n[nH]c4ccc(Cc5cc(F)cc(F)c5)cc34)c(NC3CCOCC3)c2)CC1)NCCNc1ccc2c(c1)C(=O)N(C1CCC(=O)NC1=O)C2=O` (centres unmarked) [TR-165, N-(5-(3,5-Difluorobenzyl)-1H-indazol-3-yl)-4-(4-(2-((2-((2-(2,6-dioxopiperidin-3-yl)-1,3-dioxoisoindolin-5-yl)amino)ethyl)amino)-2-oxoethyl)piperazin-1-yl)-2-((tetrahydro-2H-pyran-4-yl)amino)benzamide], the pIC50 was 8.46.

Still in this experiment, the particulars now being: Homo sapiens, 72 h; Table 4; KM12 cell viability, CellTiter-Glo, 3 days; read-out: IC50.
For the molecule `Cn1c(=O)n(C2CCC(=O)NC2=O)c2ccc(NCCCN3CCN(c4cccc(-c5cnc6ccc(N7CCC[C@@H]7c7cccc(F)c7)nn56)n4)CC3)cc21` (stereo partly drawn) [TR-221, 3-(5-((3-(4-(6-(6-((R)-2-(3-Fluorophenyl)pyrrolidin-1-yl)imidazo[1,2-b]pyridazin-3-yl)pyridin-2-yl)piperazin-1-yl)propyl)amino)-3-methyl-2-oxo-2,3-dihydro-1H-benzo[d]imidazol-1-yl)piperidine-2,6-dione], the negative-log IC50 (pIC50) was 8.07.

As to `O=C1CCC(N2C(=O)c3ccc(N4CCC(CN5CCN(c6cccc(-c7cnc8ccc(N9CCC[C@@H]9c9cccc(F)c9)nn78)n6)CC5)C4)cc3C2=O)C(=O)N1` (stereo partly drawn) [TR-225, 2-(2,6-Dioxopiperidin-3-yl)-5-(3-((4-(6-(6-((R)-2-(3-fluorophenyl)pyrrolidin-1-yl)imidazo[1,2-b]pyridazin-3-yl)pyridin-2-yl)piperazin-1-yl)methyl)pyrrolidin-1-yl)isoindoline-1,3-dione], the pIC50 was 8.06. Still for that read-out and setting: for `O=C1CCC(N2Cc3cc(NC4CCN(c5cccc(-c6cnc7ccc(N8CCC[C@@H]8c8cccc(F)c8)nn67)n5)CC4)ccc3C2=O)C(=O)N1` (stereo partly drawn) [TR-212, 3-(5-((1-(6-(6-((R)-2-(3-fluorophenyl)pyrrolidin-1-yl)imidazo[1,2-b]pyridazin-3-yl)pyridin-2-yl)piperidin-4-yl)amino)-1-oxoisoindolin-2-yl)piperidine-2,6-dione] the value was 7.80; for `Cn1c(=O)n(C2CCC(=O)NC2=O)c2cccc(NCCCN3CCN(c4cccc(-c5cnc6ccc(N7CCC[C@@H]7c7cccc(F)c7)nn56)n4)CC3)c21` (stereo partly drawn) [TR-217, 3-[4-[3-[4-[6-[6-[(2R)-2-(3-Fluorophenyl)pyrrolidin-1-yl]imidazo[1,2-b]pyridazin-3-yl]-2-pyridyl]piperazin-1-yl]propylamino]-3-methyl-2-oxo-benzimidazol-1-yl]piperidine-2,6-dione], 8.40; for `O=C1CCC(N2C(=O)c3ccc(NC(=O)CN4CCN(c5cccc(-c6cnc7ccc(N8CCC[C@@H]8c8cccc(F)c8)nn67)n5)CC4)cc3C2=O)C(=O)N1` (stereo partly drawn) [TR-233, N-(2-(2,6-Dioxopiperidin-3-yl)-1,3-dioxoisoindolin-5-yl)-2-(4-(6-(6-((R)-2-(3-fluorophenyl)pyrrolidin-1-yl)imidazo[1,2-b]pyridazin-3-yl)pyridin-2-yl)piperazin-1-yl)acetamide], 8.30.
